Patent US20250281507A1, “METHODS OF TREATING NEPHROTIC SYNDROME” (The Research Institute at Nationwide Children's Hospital, priority 2021, published 2025)
Several values for one entry are separate records, joined by “and”; a condition that tells them apart may be missing. Equal entries are not always repeated.

Columns and labels:
Format in all cases: in vivo, human
[1] = tested on: children with NS; test: Renal survival, renal function, remission and prednisone taper on pioglitazone
From the text: (§1) In the following clinical studies, the efficacy and safety of adding pioglitazone to reduce proteinuria in children with NS was examined. All children with NS identified worldwide to have been treated with pioglitazone were included, with no patients excluded. Each patient had pioglitazone added to their other NS medications at the discretion of their treating pediatric nephrologist. All patient records were reviewed in a de-identified manner, with prior ethics committee approval at each institution. Data were analyzed based on defined time periods before and after the addition of pioglitazone. Patients were defined as having responded to pioglitazone (i.e., Responders) if their urine protein to creatinine ratio (UPCR, mg/mg) decreased from the period 0-1 month pre-pioglitazone to the period 0-1 month post-pioglitazone. Glomerular filtration rate estimation (eGFR) in patients <18 years was calculated using the revised Schwartz equation. In patients >18 years, eGFR was calculated as the mean of the revised Schwartz and CKD-EPI creatinine equations. Quantitative data, such as patient age, duration of NS, pioglitazone dosage, and outcomes of UPCR, TIS, and serum albumin, were summarized as means (standard errors of mean), while categorical data such as renal survival status were summarized as frequency (percent). Due to a small sample size, Responders and Non-responders were compared using Wilcoxon Rank Sum tests on quantitative variables and Fisher's exact tests on categorical variables. For both Responders and Non-responders, pre-pioglitazone to post-pioglitazone initiation changes in UPCR, TIS, and serum albumin levels were analyzed using Wilcoxon Signed Rank tests. Numbers of hospitalizations pre-pioglitazone and post-pioglitazone initiation were analyzed and compared using Poisson distributions. Statistical significance was assessed at both the 0.05 and 0.10 levels. All analyses were conducted using SPSS software ver. 26 (IBM, Armonk, NY, USA).

[2] = tested on: children with NS; test: Serum albumin before and after addition of pioglitazone; settings: for % S Alb increase (0-1 mo) / % S Alb increase (5-7 mo): vs 0-1 mo pre-PIO; for serum albumin increase, range / mean serum albumin: Responders; for mean serum albumin: pre 2.5 g/dL
From the text: as §1

[3] = tested on: children with NS; test: Hospitalizations, edema, hypoglycemia and side effects on pioglitazone
From the text: as §1

[4] = Patient 1 (Responder), pre-PIO 2.5
[5] = Patient 2 (Responder), pre-PIO 2.4
[6] = Patient 3 (Responder), pre-PIO 1.7
[7] = Patient 5 (Non-responder), pre-PIO 4.4
[8] = Patient 6 (Responder), pre-PIO 4.5
[9] = Patient 7 (Non-responder), pre-PIO 2.9
[10] = Patient 8 (Responder), pre-PIO 1.2
[11] = mean of 5 Responders, pre-PIO 2.46

SMILES: CCc1ccc(CCOc2ccc(CC3SC(=O)NC3=O)cc2)nc1 (stereo not drawn) [pioglitazone]
- Renal Survival, % survival ([1]; 3 Non-responders): 33.3%
- Renal Survival, % survival ([1]; 5 Responders): 100%
- Renal Survival ([1]; Patient 1 (Responder)): yes
- renal function ([1]; Patient 1, during pioglitazone treatment): maintained normal renal function
- Renal Survival ([1]; Patient 2 (Responder)): yes
- renal function ([1]; Patient 2, during pioglitazone treatment): maintained normal renal function
- PRED dose after taper ([1]; Patient 2, orally QD, from 30 mg/d): 5 mg
- remission ([1]; Patient 2, pioglitazone 15 mg orally QD for 16 weeks): achieved full remission
- Renal Survival ([1]; Patient 3 (Responder)): yes
- Prednisone dose after decrease ([1]; Patient 3, from 40 mg/d): 20 mg/day
- Renal Survival ([1]; Patient 4 (Non-responder), cFSGS, AKI at presentation): no
- renal function ([1]; Patient 4, during pioglitazone treatment): renal function continued to worsen
- Renal Survival ([1]; Patient 5 (Non-responder)): yes
- NS relapses ([1]; Patient 5, on pioglitazone for 2.5 years): continued to have NS relapses
- Renal Survival ([1]; Patient 6 (Responder)): yes
- serum creatinine ([1]; Patient 6, on MMF and pioglitazone): 0.90 mg/dL
- Renal Survival ([1]; Patient 7 (Non-responder)): no
- renal function ([1]; Patient 7, pre-pioglitazone eGFR 44 ml/min/1.73 m^2): remained stable during the 6 months of pioglitazone treatment
- Renal Survival ([1]; Patient 8 (Responder)): yes
- renal function ([1]; Patient 8, during pioglitazone treatment): renal function remained normal
- remission ([1]; Patient 8, following 5-7 months): remained in complete remission
- PRED dose after taper ([1]; Patient 8, from 25 mg/d): 10 mg/day
- Post-PIO S Alb (0-1 mo; g/dL) [2, 4]: 2.9 g/dL
- Post-PIO S Alb (5-7 mo; g/dL) [2, 4]: 3.5 g/dL
- % S Alb increase (0-1 mo) ([2]; Patient 1 (Responder)): 16.0%
- % S Alb increase (5-7 mo) ([2]; Patient 1 (Responder)): 40.0%
- Post-PIO S Alb (0-1 mo; g/dL) [2, 5]: 3 g/dL
- Post-PIO S Alb (5-7 mo; g/dL) [2, 5]: 3.5 g/dL
- % S Alb increase (0-1 mo) ([2]; Patient 2 (Responder)): 25.0%
- % S Alb increase (5-7 mo) ([2]; Patient 2 (Responder)): 45.8%
- Post-PIO S Alb (0-1 mo; g/dL) [2, 6]: 2.3 g/dL
- Post-PIO S Alb (5-7 mo; g/dL) [2, 6]: 3.7 g/dL
- % S Alb increase (0-1 mo) ([2]; Patient 3 (Responder)): 35.3%
- % S Alb increase (5-7 mo) ([2]; Patient 3 (Responder)): 118%
- Post-PIO S Alb (0-1 mo; g/dL) ([2]; Patient 4 (Non-responder), pre-PIO 1.6, increase attributed to declining kidney function): 2.7 g/dL
- % S Alb increase (0-1 mo) ([2]; Patient 4 (Non-responder)): 68.8%
- Post-PIO S Alb (0-1 mo; g/dL) [2, 7]: 4.1 g/dL
- Post-PIO S Alb (5-7 mo; g/dL) [2, 7]: 4.3 g/dL
- % S Alb increase (0-1 mo) ([2]; Patient 5 (Non-responder)): −6.82%
- % S Alb increase (5-7 mo) ([2]; Patient 5 (Non-responder)): −2.27%
- Post-PIO S Alb (0-1 mo; g/dL) [2, 8]: 4.1 g/dL
- Post-PIO S Alb (5-7 mo; g/dL) [2, 8]: 4.4 g/dL
- % S Alb increase (0-1 mo) ([2]; Patient 6 (Responder)): −8.89%
- % S Alb increase (5-7 mo) ([2]; Patient 6 (Responder)): −2.22%
- Post-PIO S Alb (0-1 mo; g/dL) [2, 9]: 2.8 g/dL
- Post-PIO S Alb (5-7 mo; g/dL) [2, 9]: 3.1 g/dL
- % S Alb increase (0-1 mo) ([2]; Patient 7 (Non-responder)): −3.45%
- % S Alb increase (5-7 mo) ([2]; Patient 7 (Non-responder)): 6.90%
- Post-PIO S Alb (0-1 mo; g/dL) [2, 10]: 3.1 g/dL
- Post-PIO S Alb (5-7 mo; g/dL) [2, 10]: 3.4 g/dL
- % S Alb increase (0-1 mo) ([2]; Patient 8 (Responder)): 158%
- % S Alb increase (5-7 mo) ([2]; Patient 8 (Responder)): 183%
- serum albumin increase, range ([2]; 0-1 month post-pioglitazone): −9-158%
- mean serum albumin ([2]; 0-1 month post-pioglitazone): 3.1 g/dL
- serum albumin increase, range ([2]; 5-7 months post-pioglitazone): −2-183%
- mean serum albumin ([2]; 5-7 months post-pioglitazone): 3.7 g/dL
- % S Alb increase (0-1 mo), Mean (SEM) ([2]; mean of 5 Responders): 45% and 45.2%
- % S Alb increase (5-7 mo), Mean (SEM) ([2]; mean of 5 Responders): 77% and 76.9%
- Post-PIO S Alb (0-1 mo; g/dL), Mean (SEM) [2, 11]: 3.08 g/dL
- Post-PIO S Alb (5-7 mo; g/dL), Mean (SEM) [2, 11]: 3.7 g/dL
- % S Alb increase (0-1 mo), Mean (SEM) ([2]; mean of Non-responders): 19.5%
- Post-PIO S Alb (5-7 mo; g/dL), Mean (SEM) ([2]; mean of Non-responders (Patient 4 ESRD)): 3.7 g/dL
- % S Alb increase (5-7 mo), Mean (SEM) ([2]; mean of Non-responders (without Patient 4)): 2.31%
- Post-PIO S Alb (0-1 mo; g/dL), Mean (SEM) ([2]; mean of Non-responders, pre-PIO 2.97): 3.2 g/dL
- required hospitalizations ([3]; 5 Responders, post-pioglitazone, 11 pre-pioglitazone): none
- side effects attributable to pioglitazone ([3]; Patient 1, 7-month PIO treatment, 15 then 30 mg QD): No side effects attributable to pioglitazone were noted
- side effects attributable to pioglitazone ([3]; Patient 2, 4-month treatment, 15 mg QD): no side effects attributable to pioglitazone noted
- side effects attributable to pioglitazone ([3]; Patient 3, 19-month course): No side effects attributable to pioglitazone were noted
- side effects attributable to pioglitazone ([3]; Patient 4, 3 weeks of treatment, 7.5 mg QD): no side effects attributable to pioglitazone were noted
- side effects attributable to pioglitazone ([3]; Patient 5, 2.5 years, 45 mg QD): No side effects attributable to pioglitazone were noted
- side effects attributable to pioglitazone ([3]; Patient 6, 5-year course, 30 mg QD): No side effects attributable to pioglitazone were noted
- side effects (reason for stopping pioglitazone) ([3]; Patient 7, 6 months, 15 then 30 mg QD): concerns of possible association with new-onset bruising, which resolved
- side effects attributable to pioglitazone ([3]; Patient 8, 30-week course, 30 mg QD): No side effects attributable to pioglitazone were noted
- reductions in hospitalizations for IV albumin infusions and diuresis ([3]; Responders): 100%
- children with worsening edema after pioglitazone introduction ([3]; all 8 patients): 0%
- hospitalizations for IV albumin infusions to manage NS-related edema ([3]; all 8 patients, 5-7 months post-pioglitazone, 13 in the 5-7 months pre-pioglitazone): 1
- adverse events attributable to pioglitazone ([3]; all patients, collective 136 months of drug exposure): no patients experienced any adverse events attributable to pioglitazone
- pioglitazone-related hypoglycemia ([3]; all patients, observation period): no children with NS were noted to have pioglitazone-related hypoglycemia
